Test results from patent US20220259202A1, “1-(4-(AMINOMETHYL)BENZYL)-2-BUTYL-2H-PYRAZOLO[3,4-C]QUINOLIN-4-AMINE DERIVATIVES AND RELATED COMPOUNDS AS TOLL-LIKE RECEPTOR (TLR) 7/8 AGONISTS, AS WELL AS ANTIBODY DRUG CONJUGATES THEREOF FOR USE IN CANCER THERAPY AND DIAGNOSIS” (SUTRO BIOPHARMA, INC., priority 2019, published 2022).

Key:
Experiment in all cases: HEK293 SEAP reporter assay, other TLRs (Biological Example 3)
Format in all cases: cell-based
mouse TLR7 = biological target: T1, mouse TLR7 (Mus musculus, UniProt P58681); conditions: 16 hrs, * = Estimated
T1 construct: host or cells: HEK293
T1 sequence (P58681 27-1050): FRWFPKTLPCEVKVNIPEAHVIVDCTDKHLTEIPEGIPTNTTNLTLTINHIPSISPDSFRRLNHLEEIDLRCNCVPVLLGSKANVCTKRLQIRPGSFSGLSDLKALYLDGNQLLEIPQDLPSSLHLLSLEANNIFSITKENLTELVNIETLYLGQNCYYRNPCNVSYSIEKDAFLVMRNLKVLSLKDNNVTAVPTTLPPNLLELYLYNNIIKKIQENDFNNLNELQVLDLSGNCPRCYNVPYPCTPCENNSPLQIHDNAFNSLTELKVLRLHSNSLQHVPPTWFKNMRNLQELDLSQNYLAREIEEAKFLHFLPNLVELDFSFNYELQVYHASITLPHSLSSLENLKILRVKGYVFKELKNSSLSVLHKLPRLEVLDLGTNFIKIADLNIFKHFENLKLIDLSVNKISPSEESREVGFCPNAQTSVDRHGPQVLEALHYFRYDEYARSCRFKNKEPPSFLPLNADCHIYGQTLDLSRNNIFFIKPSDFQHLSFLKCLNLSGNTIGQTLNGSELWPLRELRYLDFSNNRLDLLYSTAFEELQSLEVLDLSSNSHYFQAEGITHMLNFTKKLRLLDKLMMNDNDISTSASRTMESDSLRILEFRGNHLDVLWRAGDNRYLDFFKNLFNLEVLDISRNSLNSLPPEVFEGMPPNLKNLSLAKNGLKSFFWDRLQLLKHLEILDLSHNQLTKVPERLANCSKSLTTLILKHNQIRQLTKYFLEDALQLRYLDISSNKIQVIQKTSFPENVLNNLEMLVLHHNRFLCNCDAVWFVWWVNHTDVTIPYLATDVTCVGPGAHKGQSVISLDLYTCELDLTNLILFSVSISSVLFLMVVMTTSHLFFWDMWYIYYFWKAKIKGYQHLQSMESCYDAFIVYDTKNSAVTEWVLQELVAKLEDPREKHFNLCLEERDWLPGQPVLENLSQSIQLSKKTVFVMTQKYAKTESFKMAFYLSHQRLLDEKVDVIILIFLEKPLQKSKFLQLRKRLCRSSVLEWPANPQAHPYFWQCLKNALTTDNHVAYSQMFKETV
Excerpt: (§1) In this example, the activity of the Compound 1 to stimulate different human and mouse TLR pathways was investigated on HEK293 cells transfected with inducible SEAP (secreted embryonic alkaline phosphatase) reporter genes and also expressing different human TLRs (TLR2, TLR3, TLR4, TLR5, TLR7, TLR8, TLRS) or mouse TLRs (TLR2, TLR3, TLR4, TLR5, TLR7, TLR8, TLR13). Compound A
(§2) HEK293 reporter cell lines were purchased from Invivogen and cell lines were maintained in manufacture recommended culture medium with required supplemental antibiotics. On the day of assay, the cells were harvested with Accutase and counted by the Vi-CELL Cell Viability Analyzers. Cells were re-suspended in HEK blue detection medium and a total of 10000 cells were seeded in each well of a 384-well flat bottom plate. […] Assay plates were cultured at 37° C. in a CO2 incubator for 16 hrs. HEK-Blue™ Detection medium changes to a purple/blue color in the presence of secreted SEAP, which can be detected by spectrophotometry at 620-655 nm. Data was fitted with non-linear regression analysis, using a log(inhibitor) vs. response-variable slope, 3-parameter fit with GraphPad Prism.

mouse TLR4 = biological target: T2, mouse TLR4 (Mus musculus, UniProt Q9JHF9+Q9QUK6); conditions: 16 hrs, up to 1 μM
T2 construct: host or cells: HEK293
T2 sequence (Q9QUK6 26-835): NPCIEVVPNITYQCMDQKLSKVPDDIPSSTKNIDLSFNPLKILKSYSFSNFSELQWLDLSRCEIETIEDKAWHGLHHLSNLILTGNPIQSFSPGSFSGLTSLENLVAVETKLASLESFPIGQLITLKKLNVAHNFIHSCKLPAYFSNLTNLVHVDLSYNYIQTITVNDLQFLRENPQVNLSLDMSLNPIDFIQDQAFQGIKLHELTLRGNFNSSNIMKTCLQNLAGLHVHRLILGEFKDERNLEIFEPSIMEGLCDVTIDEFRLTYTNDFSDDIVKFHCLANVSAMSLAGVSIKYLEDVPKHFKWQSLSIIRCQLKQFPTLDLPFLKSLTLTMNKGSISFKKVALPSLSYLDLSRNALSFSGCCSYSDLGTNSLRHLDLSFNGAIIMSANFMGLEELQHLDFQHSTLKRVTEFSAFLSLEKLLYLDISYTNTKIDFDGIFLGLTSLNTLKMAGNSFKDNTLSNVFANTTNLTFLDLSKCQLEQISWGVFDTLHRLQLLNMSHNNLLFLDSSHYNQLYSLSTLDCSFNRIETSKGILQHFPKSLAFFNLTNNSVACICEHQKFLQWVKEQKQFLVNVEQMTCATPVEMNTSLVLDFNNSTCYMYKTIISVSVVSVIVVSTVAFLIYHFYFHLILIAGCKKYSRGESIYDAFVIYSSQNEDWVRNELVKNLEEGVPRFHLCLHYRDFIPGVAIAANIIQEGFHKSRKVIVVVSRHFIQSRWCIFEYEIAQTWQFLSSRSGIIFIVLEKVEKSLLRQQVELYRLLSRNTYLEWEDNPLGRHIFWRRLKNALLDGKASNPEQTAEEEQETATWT
T2 sequence (Q9JHF9 19-160): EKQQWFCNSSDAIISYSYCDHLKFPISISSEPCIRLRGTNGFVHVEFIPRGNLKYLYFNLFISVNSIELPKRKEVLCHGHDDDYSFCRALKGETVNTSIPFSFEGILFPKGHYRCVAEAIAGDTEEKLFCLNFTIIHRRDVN
Excerpt: as §1, §2

human TLR2 = biological target: T3, human TLR2 (Homo sapiens, UniProt O60603); conditions: 16 hrs, up to 1 μM
T3 construct: host or cells: HEK293
Excerpt: as §1, §2

T3 sequence (O60603 21-784): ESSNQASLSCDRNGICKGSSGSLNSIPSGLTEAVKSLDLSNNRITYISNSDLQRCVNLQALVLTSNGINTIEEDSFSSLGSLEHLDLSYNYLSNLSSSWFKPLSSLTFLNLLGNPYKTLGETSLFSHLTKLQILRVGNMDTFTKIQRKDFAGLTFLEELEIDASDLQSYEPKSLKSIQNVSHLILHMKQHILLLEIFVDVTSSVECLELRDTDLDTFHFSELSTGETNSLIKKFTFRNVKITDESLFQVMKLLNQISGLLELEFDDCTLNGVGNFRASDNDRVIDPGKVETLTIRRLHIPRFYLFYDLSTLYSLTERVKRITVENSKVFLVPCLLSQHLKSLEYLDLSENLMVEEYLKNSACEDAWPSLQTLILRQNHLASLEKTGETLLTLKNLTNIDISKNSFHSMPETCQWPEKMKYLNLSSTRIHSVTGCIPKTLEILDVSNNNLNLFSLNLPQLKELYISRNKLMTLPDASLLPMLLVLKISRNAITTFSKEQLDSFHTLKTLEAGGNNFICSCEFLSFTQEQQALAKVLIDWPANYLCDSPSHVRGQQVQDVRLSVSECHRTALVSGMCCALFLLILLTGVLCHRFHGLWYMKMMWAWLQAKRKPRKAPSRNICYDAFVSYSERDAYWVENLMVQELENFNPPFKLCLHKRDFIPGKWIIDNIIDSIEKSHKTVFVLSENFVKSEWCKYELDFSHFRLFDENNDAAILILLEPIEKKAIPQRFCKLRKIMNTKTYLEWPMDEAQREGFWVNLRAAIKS

| SMILES | EC50 (mouse TLR7) | EC50 (mouse TLR4) | EC50 (human TLR2) |
| --- | --- | --- | --- |
| CCCCc1nc2c(N)nc3ccccc3c2n1Cc1ccc(CN)cc1 [Compound A, reference compound] | 15.9 nM | > 1000 nM | > 1000 nM |
| CCCCn1nc2c(N)nc3ccccc3c2c1Cc1ccc(CN)cc1 [Compound 1, 1-(4-(aminomethyl)benzyl)-2-butyl-2H-pyrazolo[3,4-c]quinolin-4-amine] | ~21.8 nM | > 1000 nM | > 1000 nM |
